The source of these data is PubChem BioAssay (NCI).

Test systems include SW-620 colon; SNB-75 CNS; NCI-H522 lung; SF-539 CNS; M14 melanoma; SK-MEL-2 melanoma; CCRF-CEM leukemia; NCI-H23 lung; HOP-92 NSCLC; HS 578T breast.
Common to all, as to experiment: NCI-60 cell line screen, 48 h

SMILES strings stand for the structures. “And” between values parts separate entries of the source, which are not always exact repeats. Identical values can stand only once.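 A five-concentration, 48-hour dose response in 96-well plates underlies each endpoint, interpolated linearly between surrounding concentrations. GI50 marks 50% less growth. TGI: total growth inhibition.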 Where a SMILES comes first, the peptide text is derived from it. The star is where a group is joined. Boc = CC(C)(C)OC(=O)*; OBn = c1ccc(CO*)cc1; Bn = c1ccc(C*)cc1

In the case of `Cc1cc2nc3c(C#N)c(-c4ccccc4)/c(=C\Nc4cccc(C(F)(F)F)c4)c(=O)n3c2cc1C`, the TGI in the assay on SW-620 colon is over 100 µM; in the assay on SNB-75 CNS, over 100 µM; in the assay with NCI-H522 lung, 93.7 µM; in the assay with SF-539 CNS, over 100 µM; in the assay on M14 melanoma, over 100 µM; with SK-MEL-2 melanoma, over 100 µM. The TGI with CCRF-CEM leukemia and in the assay on NCI-H23 lung was over 100 µM each time.

Regarding `CCC1OC2C(CC=C(C)C)=C3OC(C)(O)C(C)(CC)C(O)C3=C3OC(=O)C=C1C32` (centres undefined), the TGI in the assay with SW-620 colon is over 100 µM; with HOP-92 NSCLC, 54.9 µM; in the assay on SF-539 CNS, 53.6 µM; in the assay on M14 melanoma, over 100 µM; in the assay with SK-MEL-2 melanoma it was 84.5 µM; with CCRF-CEM leukemia, over 100 µM. Besides, in the assay on NCI-H23 lung, the TGI stood at 57.7 µM.

With `CC(C)CC(NC(=O)C(Cc1ccccc1)NC(=O)C(COCc1ccccc1)NC(=O)OC(C)(C)C)C(=O)OCc1ccccc1` (stereo not drawn) (Boc-Ser(Bn)-Phe-Leu-OBn; configuration not given here), the TGI was 56.7 µM with SW-620 colon; 57.6 µM in the assay with SNB-75 CNS; 31.9 µM in the assay on NCI-H522 lung; 72.3 µM with SF-539 CNS; over 100 µM in the assay with M14 melanoma; over 100 µM in the assay on SK-MEL-2 melanoma. Further, the TGI in the assay on CCRF-CEM leukemia stood at 63.7 µM; in the assay with NCI-H23 lung, 43.2 µM.

Take `Fc1ccc(C(=NCc2ccccc2)N2CCOCC2)cc1`: the TGI in the assay with SW-620 colon, with SNB-75 CNS, with HS 578T breast, in the assay on SF-539 CNS, in the assay on M14 melanoma and with SK-MEL-2 melanoma was over 100 µM throughout. The TGI in the assay with CCRF-CEM leukemia and with NCI-H23 lung was over 100 µM each time.

Consider `O=C(CCN1CCCC1)Nc1ccc2c(NCCCCc3ccccc3)c3ccccc3nc2c1`, for which the GI50 with SW-620 colon is 0.534 µM; in the assay on SNB-75 CNS, 1.33 µM; with HOP-92 NSCLC, 1.06 µM; in the assay with SF-539 CNS, 1.44 µM; in the assay on SK-MEL-2 melanoma, 1.76 µM; in the assay on NCI-H23 lung, 1.1 µM. In addition, the TGI with SW-620 colon was determined as 1.86 µM; in the assay on SNB-75 CNS, 2.65 µM; in the assay on HOP-92 NSCLC it was 2.32 µM; in the assay on SF-539 CNS it was 2.84 µM; in the assay on SK-MEL-2 melanoma, 3.34 µM; in the assay with NCI-H23 lung it was 2.4 µM.

As to `Cc1ccc(S(=O)/C=C(\NC(=O)OCc2ccccc2)C(F)(F)F)cc1` (centres undefined), the TGI is over 100 µM in the assay on SW-620 colon; 91.4 µM in the assay on SNB-75 CNS; over 100 µM in the assay on NCI-H522 lung; over 100 µM with HOP-92 NSCLC; 92.9 µM in the assay with SF-539 CNS; over 100 µM in the assay on M14 melanoma. Also, the TGI was over 100 µM in the assay on SK-MEL-2 melanoma, 72.4 µM with CCRF-CEM leukemia and over 100 µM in the assay with NCI-H23 lung.

In the case of `COC(=O)CP1(=O)OC2C(C3CCC2(C)C3(C)C)N1c1cc(C(F)(F)F)cc(C(F)(F)F)c1` (centres undefined), the TGI in the assay with SW-620 colon is 88.3 µM; in the assay on SNB-75 CNS, 51.9 µM; in the assay on SF-539 CNS it was 45.8 µM; with M14 melanoma, over 100 µM; in the assay with SK-MEL-2 melanoma, 46.4 µM; in the assay on NCI-H23 lung, 86.3 µM.

As for `CC(=O)c1nc2ccccc2n1CC(=O)c1ccc([N+](=O)[O-])cc1`, the TGI with SW-620 colon is 41.6 µM; with SNB-75 CNS, over 100 µM; with NCI-H522 lung, 15.7 µM; with HS 578T breast, 28.9 µM; in the assay on SF-539 CNS, over 100 µM; with M14 melanoma, over 100 µM. Further, the TGI with CCRF-CEM leukemia and in the assay with NCI-H23 lung was over 100 µM in each case.

Take `CC1(C)COC(c2cccc(C3=NC(C)(C)CO3)c2)=N1`: the TGI with SW-620 colon, in the assay on HOP-92 NSCLC, with SF-539 CNS, in the assay with M14 melanoma, in the assay on SK-MEL-2 melanoma and in the assay on NCI-H23 lung was over 100 µM each time.

For the molecule `O=c1[nH]c2ccc(CC(=S)N3CCN(c4ccccc4)CC3)cc2s1`, the TGI in the assay with SW-620 colon, with HS 578T breast, with SF-539 CNS, with M14 melanoma, in the assay with SK-MEL-2 melanoma and in the assay on CCRF-CEM leukemia was over 100 µM in each case. Besides, in the assay on NCI-H23 lung, the TGI was over 100 µM.

On to `CC(C)(C)NCC(O)COc1cccc2[nH]c(C#N)cc12` (centres undefined), for which the TGI in the assay on SW-620 colon, in the assay on NCI-H522 lung, with HS 578T breast, with SF-539 CNS, in the assay on M14 melanoma and with SK-MEL-2 melanoma was over 100 µM each time. In addition, the TGI in the assay with NCI-H23 lung is over 100 µM.

In the case of `OC(Cn1cncn1)(Cn1cncn1)c1ccc(Cl)cc1Cl`, the TGI with SW-620 colon, in the assay on SNB-75 CNS, in the assay with NCI-H522 lung, in the assay with HOP-92 NSCLC, in the assay with SF-539 CNS and with M14 melanoma was over 100 µM throughout. Besides, the TGI with SK-MEL-2 melanoma, in the assay with CCRF-CEM leukemia and in the assay with NCI-H23 lung was over 100 µM each time.

`C(=N\NC1=NCCCN1)/c1ccc(-c2cn3cc(/C=N/NC4=NCCCN4)ccc3n2)cc1`: the TGI with SW-620 colon, with SNB-75 CNS, in the assay on NCI-H522 lung, with HOP-92 NSCLC, in the assay on SF-539 CNS and in the assay on M14 melanoma was over 100 µM throughout. Besides, the TGI in the assay on SK-MEL-2 melanoma is over 100 µM; in the assay with CCRF-CEM leukemia, over 66.2 µM; in the assay with NCI-H23 lung it was over 100 µM.

Regarding `CCCCCCc1cc(C=O)sc1-c1ccc(-c2sc(-c3ccc(-c4ccc(-c5cc(CCCCCC)c(-c6ccc(-c7sc(C=O)cc7CCCCCC)s6)s5)s4)s3)cc2CCCCCC)s1`, the TGI in the assay with SW-620 colon, in the assay on NCI-H522 lung, in the assay with HOP-92 NSCLC, in the assay with SF-539 CNS, in the assay on M14 melanoma and in the assay with SK-MEL-2 melanoma was over 100 µM throughout. Moreover, the TGI in the assay with CCRF-CEM leukemia and with NCI-H23 lung was over 100 µM in each case.

Take `Cc1nn(-c2ccccc2)c(C)c1/C=N/NC(=O)c1sc(=S)n(-c2ccc(Cl)cc2)c1N`: the TGI was over 100 µM with SW-620 colon; 5.49 µM in the assay on SNB-75 CNS; 7.6 µM in the assay with HS 578T breast; over 100 µM in the assay on SF-539 CNS; over 100 µM with M14 melanoma; over 100 µM in the assay with SK-MEL-2 melanoma. Also, the TGI in the assay with CCRF-CEM leukemia and in the assay on NCI-H23 lung was over 100 µM in each case.

Regarding `CC(C)(C)[Si](C)(C)OCC1OC(n2ccc(=O)[nH]c2=O)C(O[Si](C)(C)C(C)(C)C)/C1=N/O` (centres undefined), the TGI in the assay on SW-620 colon was over 37.8 µM; in the assay on SNB-75 CNS, 46.1 µM; with HOP-92 NSCLC, 8.95 µM; in the assay with SF-539 CNS it was 10.9 µM; in the assay on M14 melanoma, 12 µM; in the assay with SK-MEL-2 melanoma, 9.48 µM. Further, the values for the TGI in the assay on CCRF-CEM leukemia and in the assay on NCI-H23 lung were 27.3 µM and 14.8 µM, respectively.

Take `COc1cccc(-n2nnc3c(N)nc(N)nc32)c1`: the TGI with SW-620 colon, in the assay on SNB-75 CNS, in the assay on NCI-H522 lung, with HOP-92 NSCLC, with SF-539 CNS and in the assay with M14 melanoma was over 100 µM each time. The TGI in the assay with SK-MEL-2 melanoma was over 100 µM; in the assay with CCRF-CEM leukemia, over 100 µM; in the assay with NCI-H23 lung it was 76.3 µM.

Regarding `N#CC(C(=O)c1ccccc1F)c1nc2cc(C(F)(F)F)ccc2s1` (centres undefined), the TGI is 82.4 µM in the assay with SW-620 colon; over 100 µM in the assay with SNB-75 CNS; 40.5 µM in the assay with NCI-H522 lung; 56.2 µM in the assay on HOP-92 NSCLC; 78.5 µM with SF-539 CNS; 53.9 µM with NCI-H23 lung.

On to `CC(=O)OCC1OC(n2c(-c3ccccc3)c(N=Nc3ccc(Cl)cc3)c(C)c(C#N)c2=S)C(OC(C)=O)C(OC(C)=O)C1OC(C)=O` (centres undefined), for which the TGI was 34.6 µM and > 100 µM in the assay on SW-620 colon; > 100 µM and 26.4 µM in the assay on SNB-75 CNS; 94 µM and 96.9 µM in the assay with HS 578T breast; 43.7 µM and > 100 µM with SF-539 CNS; 32.4 µM and > 100 µM in the assay with M14 melanoma; 39.6 µM and > 100 µM with SK-MEL-2 melanoma. The TGI with CCRF-CEM leukemia was 54.3 µM and > 100 µM; with NCI-H23 lung, 14.9 µM and > 100 µM. The GI50 was 25.5 µM and 4.24 µM in the assay with SNB-75 CNS; 9.33 µM and 71.1 µM with M14 melanoma; 4.1 µM and 13.7 µM with CCRF-CEM leukemia; 2.75 µM and 22.3 µM in the assay with NCI-H23 lung.

With `COc1cc(-c2ccc(-c3ccc(C(=N)N)s3)s2)cc(OC)c1OC`, the GI50 with SNB-75 CNS was 1.5 µM; in the assay with SF-539 CNS, 1.58 µM; with CCRF-CEM leukemia, 3.42 µM; with NCI-H23 lung, 2.61 µM. Moreover, the TGI in the assay on SNB-75 CNS came to 2.93 µM; with SF-539 CNS, 3.02 µM; with CCRF-CEM leukemia it was 10.4 µM; with NCI-H23 lung it was 8.04 µM.

In the case of `N#Cc1nn(-c2ccc(Cl)cc2)c(N)c2c(=N)n3nc(-c4ccccc4)cc3nc12`, the TGI in the assay with SW-620 colon was over 100 µM; in the assay with SNB-75 CNS, over 68.4 µM; in the assay on NCI-H522 lung, over 100 µM; in the assay with M14 melanoma, over 100 µM; with SK-MEL-2 melanoma, over 20.7 µM; in the assay with CCRF-CEM leukemia it was over 100 µM. The molecule further yielded a TGI in the assay with NCI-H23 lung of over 51.9 µM. For the same molecule, the GI50 in the assay on NCI-H522 lung was 36.4 µM.

On to `C[Si](C)(C)C#C[I+]c1ccccc1`, for which the TGI in the assay with SNB-75 CNS is over 100 µM; in the assay on NCI-H522 lung, 23.3 µM; in the assay on HOP-92 NSCLC, over 100 µM; in the assay with SF-539 CNS it was 79.3 µM; in the assay with M14 melanoma it was 85.9 µM; in the assay with SK-MEL-2 melanoma, over 100 µM. Also, the TGI in the assay with CCRF-CEM leukemia was 75.8 µM; in the assay with NCI-H23 lung, over 100 µM.
